The results in this text go back to patent US8604030B2, “Fused piperidine compound and pharmaceutical containing same” (Kowa Company, Ltd., priority 2009, dated 2013).

Structures are written as SMILES.

Test [1] concerns Human hepatocellular carcinoma cell line HepG2. Description: EPO production in HepG2 culture supernatant (ELISA), 48 hours at 4% oxygen. The class given is cell-based. The settings on record: oxygen concentration 4%, 100% = EPO produced in non-stimulated state without compound; for activity at 3 µM: test compound 3 μM, read-out: % of Control (3 μM), produced amount of EPO; for activity at 10 µM: test compound 10 μM, read-out: % of Control (10 μM), produced amount of EPO. As to the method:
Human hepatocellular carcinoma cell line HepG2 was inoculated in aliquots of 5×10^4 cells each into each of the wells of a 48-well plate using minimum essential medium (MEM, Sigma) containing 10% fetal bovine serum. On the following day, the medium was replaced with Dulbecco's Modified Eagle Medium (DMEM, Sigma) not containing phenol red but containing 10% fetal bovine serum followed by the addition of a test compound dissolved in DMSO to a final concentration of 3 μM or 10 and bringing to a final media volume of 400 μl per well. After incubating for 48 hours in a CO2 incubator having an oxygen concentration of 4%, the culture supernatant was recovered. The concentration of EPO in the culture supernatant was measured immediately using an ELISA kit (Roche Diagnostics). The procedure used complied with that described in the instructions.
The produced amount of EPO derived from each compound was determined based on a value of 100% for the amount of EPO produced in a non-stimulated state in the absence of addition of a compound (% of control).

Test [2] has as its system Human proerythroblast cell line K562. Put plainly: Hemoglobin production in K562 cells (porphyrin ring fluorescence). In kind it is cell-based. To be noted: 72 h, test compound 6 μM, 3 days + 3 days after medium replacement, 3×10^5 cells, 100% = hemoglobin produced in non-stimulated state without compound, read-out: % of Control (6 μM), amount of hemoglobin produced. As to the method: Human proerythroblast cell line K562 (acquired from ATCC) was inoculated in aliquots of 1×10^5 cells/mL into each of the wells of a 24-well plate using complete medium (RPMI-1640 medium containing 10% fetal bovine serum), followed by the addition of the test compounds at a final concentration of 6 μM and incubating for 3 days in a CO2 incubator (37° C., 5% CO2). Culturing was continued for an additional 3 days after replacing the medium. The cells were then collected and counted followed by unifying to a cell count of 3×10^5 cells and determining the amount of hemoglobin produced in the cells by measuring the fluorescence of the porphyrin ring. Namely, the cells collected by centrifugation were suspended in 500 μL of 2 M oxalic acid, and boiled for 30 minutes and allowed to cool, followed by measuring fluorescence intensity with a fluorescent microplate reader (Spectra MAX Gemini EM, MDC Japan, Inc.) ([…]). The amount of hemoglobin induced to be produced by each compound was determined based on a value of 100% for the amount of hemoglobin produced in a non-stimulated state in the absence of addition of a compound (% of control).

Consider `CC(=O)N1c2ccsc2C(Nc2ccc(Cl)cc2)CC1C` (centres unmarked) [Compound 4, 1-(7-(4-chlorophenylamino)-5-methyl-6,7-dihydrothieno[3,2-b]pyridine-4(5H)-yl)ethanone], for which the activity at 3 µM in test [1] is 137%. Besides, the activity at 6 µM in test [2] turned out to be 135%.

In the case of `CC(=O)N1c2ncccc2[C@H](Nc2ccc(Cl)cc2)C[C@@H]1C` (relative stereo) [Compound 1, cis-1-acetyl-4-[(4-chlorophenyl)amino]-2-methyl-3,4-dihydro-2H-[1,8]-naphthyridine], in test [1], the activity at 3 µM amounted to 416%. Also, the activity at 6 µM in test [2] is 197%.

Take `CC(=O)N1c2cccnc2[C@H](Nc2ccc(Cl)cc2)C[C@@H]1C` (relative stereo) [Compound 3, cis-1-acetyl-4-[(4-chlorophenyl)amino]-2-methyl-3,4-dihydro-2H-[1,5]-naphthyridine]: in test [1], the activity at 3 µM is 153%. The activity at 6 µM in test [2] came to 105%.

For `CC(=O)N1c2ccc3[nH]ccc3c2[C@H](Nc2ccc(Cl)cc2)C[C@@H]1C` (relative stereo) [Compound 7, cis-6-acetyl-9-(4-chlorophenylamino)-7-methyl-6,7,8,9-tetrahydro-3H-pyrrolo[3,2-f]quinoline], the activity at 10 µM in test [1] stood at 137%. The activity at 6 µM in test [2] is 436%.

Turning to `CC(=O)N1c2ccncc2[C@H](Nc2ccc(Cl)cc2)C[C@@H]1C` (relative stereo) [Compound 2, cis-1-acetyl-4-[(4-chlorophenyl)amino]-2-methyl-3,4-dihydro-2H-[1,6]-naphthyridine], in test [1], the activity at 3 µM was 392%. Further, the activity at 6 µM in test [2] was 249%.

In the case of `CC(=O)N1c2cc3c(cc2C(Nc2ccc(Cl)cc2)CC1C)OCCO3` (centres unmarked) [Compound 11, 6-acetyl-9-[(4-chlorophenyl)amino]-7-methyl-2,3,6,7,8,9-hexahydro-[1,4]dioxano[2,3-g]quinoline], the activity at 10 µM in test [1] came to 190%. For the same compound, the activity at 6 µM in test [2] turned out to be 302%.

For `CC(=O)N1c2cc3c(cc2C(Nc2ccc(Cl)cc2)CC1C)OCC(=O)N3` (stereo not drawn) [Compound 12, cis-6-acetyl-9-(4-chlorophenylamino)-7-methyl-6,7,8,9-tetrahydro-2H-[1,4]oxazino[2,3-g]quinolin-3-(4H)-one], the activity at 10 µM in test [1] worked out at 103%.

Consider `CC(=O)N1c2cc3c(cc2[C@H](Nc2ccc(Cl)cc2)C[C@@H]1C)OCO3` (relative stereo) [Compound 10, cis-1-[8-(4-chlorophenylamino)-6-methyl-7,8-dihydro-[1,3]dioxolo[4,5-g]quinolin-5(6H)-yl]ethanone], for which, in test [1], the activity at 10 µM turned out to be 191%. In addition, the activity at 6 µM in test [2] is 520%.

For `CC(=O)N1c2c(ccc3ccccc23)[C@H](Nc2ccc(Cl)cc2)C[C@@H]1C` (relative stereo) [Compound 5, cis-1-acetyl-4-[(4-chlorophenyl)amino]-2-methyl-1,2,3,4-tetrahydro-benzo[h]quinoline], the activity at 10 µM in test [1] was 183%.

On to `CC(=O)N1c2ccc3[nH]cnc3c2C(Nc2ccc(Cl)cc2)CC1C` (stereo not drawn) [Compound 8, Cis-1-acetyl-9-[(4-chlorophenyl)amino]-7-methyl-6,7,8,9-tetrahydro-1H-imiazo[4,5-f]quinoline], for which the activity at 10 µM in test [1] turned out to be 104%. For the same compound, the activity at 6 µM in test [2] is 185%.

In the case of `CC(=O)N1c2ccc3oc(=O)ccc3c2[C@H](Nc2ccc(Cl)cc2)C[C@@H]1C` (relative stereo) [Compound 9, cis-7-acetyl-10-(4-chlorophenylamino)-8-methyl-7,8,9,10-tetrahydro-3H-pyrano[3,2-f]-quinolin-3-one], in test [1], the activity at 10 µM was found to be 116%. Also, in test [2], the activity at 6 µM came to 166%.
